Laboratory results: patent US20140037694A1, “ADJUVANT FOR TRANSDERMAL OR TRANSMUCOSAL ADMINISTRATION AND PHARMACEUTICAL PREPARATION CONTAINING SAME” (HISAMITSU PHARMACEUTICAL CO., INC., priority 2011, published 2014)
Entries after “also recorded” stand apart in the source; their conditions may differ.

Experiments:
[1] = test system: skin; parameters: Skin irritation score: key to the marks not given beside the values; conditions: rat, in vivo
[2] = test system: OVA-specific IgG antibody titer; assay: Microneedle (OVA) application + transdermal adjuvant application; OVA-specific IgG antibody titer by ELISA; format: in vivo, hairless rats; conditions: for IgG antibody titer / adjuvant effect (FIG. 1): Example 1, 120 μL stock solution on patch-test tape for 6 hr after OVA microneedles, dosing weeks 0, 2, 4; for IgG antibody titer / adjuvant effect (FIG. 1) / IgG antibody titer / adjuvant effect (FIG. 5) / IgG antibody titer / adjuvant effect (FIG. 2): titers after 5 weeks; for IgG antibody titer / adjuvant effect (FIG. 1) / IgG antibody titer / adjuvant effect (FIG. 5): compared to OVA alone; for IgG antibody titer / adjuvant effect (FIG. 5): Example 5; for IgG antibody titer / adjuvant effect (FIG. 5) / IgG antibody titer / adjuvant effect (FIG. 2): 120 μL stock solution, 6 hr after OVA microneedles; for IgG antibody titer / adjuvant effect (FIG. 2): Example 3, purified water control; for Adjuvant effect against anti-OVA IgG: titers after 4 weeks
[3] = test system: OVA-specific IgG antibody titer; assay: Intradermic injection (OVA) application + glycerin application; OVA-specific IgG antibody titer by ELISA; format: in vivo, hairless rats; conditions: Example 4; intradermal OVA 20 μg + glycerin co-used; after two weeks
Method: (§1) Regarding (i) and (ii), OVA 20 μg/[…] (saline) was intradermally administered.

[4] = test system: OVA-specific IgG antibody titer; assay: Microneedle (OVA) application + transdermal adjuvant application; OVA-specific IgG antibody titer by ELISA; format: in vivo, hairless rats; conditions: Example 4
Method: as §1

CCO [ethanol]
Skin irritation observation [1]: significant skin irritation accompanied by necrosis
Skin irritation score [1]: +++
IgG antibody titer / adjuvant effect (FIG. 1) [2]: high adjuvant effect

CC(O)CO (stereo not shown) [PG, propylene glycol]
IgG antibody titer / adjuvant effect (FIG. 5) [2]: strong adjuvant effect

CC(=O)OCC(COC(C)=O)OC(C)=O [triacetin]
IgG antibody titer / adjuvant effect (FIG. 5) [2]: strong adjuvant effect

OCC(O)CO [glycerin]
IgG antibody (FIG. 4) [3]: no IgG antibody was detected
IgG antibody titer / adjuvant effect (FIG. 1) [2]: high adjuvant effect
IgG antibody titer / adjuvant effect (FIG. 2) [2]: adjuvant effect of the glycerin was confirmed
IgG antibody titer / adjuvant effect (FIG. 5) [2]: strong adjuvant effect
Adjuvant effect against anti-OVA IgG ([2]; Example 6, glycerin concentration 25%, 120 μL 6 hr): none
Adjuvant effect against anti-OVA IgG ([2]; Example 6, glycerin concentration 75%, 120 μL 6 hr): excellent adjuvant effect was confirmed
Adjuvant effect against anti-OVA IgG ([2]; Example 6, glycerin concentration 75%, 120 μL 6 hr, listed as Glycerin): present
Adjuvant effect against anti-OVA IgG ([2]; Example 7, 100% glycerin applied 10 min after antigen administration by microneedles, 6 hr): apparent increase in the IgG antibody titer; also recorded: high IgG antibody titer
Adjuvant effect against anti-OVA IgG ([2]; Example 7, 100% glycerin applied 10 min after antigen administration by microneedles, 6 hr, listed as Glycerin): present
Adjuvant effect against anti-OVA IgG ([2]; Example 7, simultaneously with antigen, mixture of OVA/pullulan/41% glycerin on microneedles): no adjuvant effect was observed
Adjuvant effect against anti-OVA IgG ([2]; Example 7, simultaneously with antigen, mixture of OVA/pullulan/41% glycerin on microneedles, listed as Glycerin): none
Adjuvant effect ([2]; glycerin concentration 100 wt %): particularly excellent adjuvant effect
Adjuvant effect (FIG. 3) ([4]; OVA by microneedles + glycerin 120 μL 6 hr, titers after 4 weeks, compared to intradermal injection of OVA): exhibited more clearly by the microneedle application
IgG antibody titer time course (FIG. 4) ([4]; OVA microneedles with concomitant glycerin, from 2 weeks): increase the IgG antibody titer was observed

CCCCCCCC/C=C\CCCCCCCC(=O)OCC(O)CO (stereo not shown) [GMO, monoglyceryl oleate]
IgG antibody titer / adjuvant effect (FIG. 5) [2]: adjuvant effect similar to that of low molecules such as glycerin

CC(C)=CCC/C(C)=C/CC/C(C)=C/CC/C=C(\C)CC/C=C(\C)CCC=C(C)C [squalene, reference compound]
Skin irritation [1]: no skin irritation
IgG antibody titer / adjuvant effect (FIG. 2) [2]: low IgG antibody titer similar to the control
